Results as given in patent publication US20260193254A1, “2-OXOQUINAZOLINE CRYSTALLINE FORMS” (IDEAYA Biosciences, Inc., priority 2022, published 2026).
In brackets after ≈: the same amount, converted by molar mass.

Tests used:
Type in all cases: physicochemical
[1] = Crystallization from hot saturated solutions by fast cooling; conditions: 50° C. to ice bath
Protocol: Obtained solution or suspension was filtered by a 0.45 μm syringe membrane filter. Clear solutions were put into an ice bath and agitated. Precipitates were collected by filtration. The solid part (wet cake) was investigated by XRPD. When differences were observed, additional investigations were performed (e.g. DSC, TGA, etc.).

[2] = Approximate solubility of solid state Form V at 25° C. and 50° C. (visual observation); conditions: thermodynamic from solid
Protocol: Maximum volume of each solvent added was 1 mL. Approximate solubility was determined by visual observation.

[3] = Equilibration with solvents at 25° C. for 2 weeks; conditions: equilibration at 25° C. for 2 weeks
Protocol: Obtained suspension was filtered. The solid part (wet cake) was investigated by XRPD. When differences were observed, additional investigations were performed (e.g. DSC, TGA etc.).

Nc1nc(=O)n(-c2ccccc2Cl)c2nc(C(F)(F)F)ccc12 [solid state Form V, 4-Amino-1-(2-chlorophenyl)-7-(trifluoromethyl)pyrido[2,3-d]pyrimidin-2(1H)-one]
Crystalline Form formed by fast cooling of hot saturated solution ([1]; FC1 Methanol (30 mg/mL)): Form C | Crystalline Form formed by fast cooling of hot saturated solution ([1]; FC2 Ethanol (13 mg/mL)): Solid state Form V | Crystalline Form formed by fast cooling of hot saturated solution ([1]; FC3 2-Propanol (7 mg/mL)): Form J (IPA solvate) | Crystalline Form formed by fast cooling of hot saturated solution ([1]; FC4 Acetone (7 mg/mL)): Form G | Crystalline Form formed by fast cooling of hot saturated solution ([1]; FC5 Methanol/water = 1/1 (v/v) (6 mg/mL)): Form C | Crystalline Form formed by fast cooling of hot saturated solution ([1]; FC6 Ethanol/water = 1/1 (v/v) (8 mg/mL)): Form F | Crystalline Form formed by fast cooling of hot saturated solution ([1]; FC7 Methanol/MTBE = 1/1 (v/v) (13 mg/mL)): Form H (MTBE solvate) | solubility at 10 min ([2]; organic solvent or mixture, SL2 Methanol, 25° C.): 15000 to 18000 µg/mL (≈ 44 to 52.8 mM) | solubility at 10 min ([2]; organic solvent or mixture, SL2 Methanol, 50° C.): 30000 to 35000 µg/mL (≈ 88.1 to 103 mM) | solubility at 10 min ([2]; organic solvent or mixture, SL3 Ethanol, 25° C.): 7000 to 8000 µg/mL (≈ 20.5 to 23.5 mM) | solubility at 10 min ([2]; organic solvent or mixture, SL3 Ethanol, 50° C.): 15000 to 17000 µg/mL (≈ 44 to 49.9 mM) | solubility at 10 min ([2]; organic solvent or mixture, SL4 2-Propanol, 25° C.): < 5000 µg/mL | solubility at 10 min ([2]; organic solvent or mixture, SL4 2-Propanol, 50° C.): 5000 to 10000 µg/mL (≈ 14.7 to 29.4 mM) | solubility at 10 min ([2]; organic solvent or mixture, SL5 Ethyl acetate, 25° C.): < 5000 µg/mL | solubility at 10 min ([2]; organic solvent or mixture, SL5 Ethyl acetate, 50° C.): < 5000 µg/mL | solubility at 10 min ([2]; organic solvent or mixture, SL6 Isopropyl acetate, 25° C.): < 5000 µg/mL | solubility at 10 min ([2]; organic solvent or mixture, SL6 Isopropyl acetate, 50° C.): < 5000 µg/mL | solubility at 10 min ([2]; organic solvent or mixture, SL7 Acetone, 25° C.): < 5000 µg/mL | solubility at 10 min ([2]; organic solvent or mixture, SL7 Acetone, 50° C.): 5000 to 10000 µg/mL (≈ 14.7 to 29.4 mM) | solubility at 10 min ([2]; organic solvent or mixture, SL8 Methyl ethyl ketone, 25° C.): < 5000 µg/mL | solubility at 10 min ([2]; organic solvent or mixture, SL8 Methyl ethyl ketone, 50° C.): < 5000 µg/mL | solubility at 10 min ([2]; organic solvent or mixture, SL9 t-Butyl methyl ether, 25° C.): < 5000 µg/mL | solubility at 10 min ([2]; organic solvent or mixture, SL9 t-Butyl methyl ether, 50° C.): < 5000 µg/mL | solubility at 10 min ([2]; organic solvent or mixture, SL10 Tetrahydrofuran, 25° C.): < 5000 µg/mL | solubility at 10 min ([2]; organic solvent or mixture, SL10 Tetrahydrofuran, 50° C.): < 5000 µg/mL | solubility at 10 min ([2]; organic solvent or mixture, SL11 2-methyl-THF, 25° C.): < 5000 µg/mL | solubility at 10 min ([2]; organic solvent or mixture, SL11 2-methyl-THF, 50° C.): < 5000 µg/mL | solubility at 10 min ([2]; organic solvent or mixture, SL12 Acetonitrile, 25° C.): < 5000 µg/mL | solubility at 10 min ([2]; organic solvent or mixture, SL12 Acetonitrile, 50° C.): < 5000 µg/mL | solubility at 10 min ([2]; organic solvent or mixture, SL13 Heptane, 25° C.): < 5000 µg/mL | solubility at 10 min ([2]; organic solvent or mixture, SL13 Heptane, 50° C.): < 5000 µg/mL | solubility at 10 min ([2]; organic solvent or mixture, SL14 Dichloromethane, 25° C.): < 5000 µg/mL | solubility at 10 min ([2]; organic solvent or mixture, SL14 Dichloromethane, 50° C.): < 5000 µg/mL | solubility at 10 min ([2]; organic solvent or mixture, SL15 Toluene, 25° C.): < 5000 µg/mL | solubility at 10 min ([2]; organic solvent or mixture, SL15 Toluene, 50° C.): < 5000 µg/mL | solubility at 10 min ([2]; SL1 Water, 25° C.): < 5000 µg/mL | solubility at 10 min ([2]; SL1 Water, 50° C.): < 5000 µg/mL | Crystalline Form ([3]; Acetone (63 mg/mL)): Form G | Crystalline Form ([3]; Acetone/water = 1/1 (v/v) (63 mg/mL)): Form G | Crystalline Form ([3]; Acetonitrile/water = 1/1 (v/v) (62 mg/mL)): Form A | Crystalline Form ([3]; Ethanol/water = 1/1 (v/v) (64 mg/mL)): Form C (hemi-hydrate) | Crystalline Form ([3]; Methanol (65 mg/mL)): Form C (hemi-hydrate) | Crystalline Form ([3]; Methanol/water = 1/1 (v/v) (64 mg/mL)): Form E (hemi-hydrate) | Crystalline Form ([3]; t-Butyl methyl ether (65 mg/mL)): Form H (MTBE solvate) | Crystalline Form ([3]; t-Butyl methyl ether/water = 95/5(v/v) (63 mg/mL)): Form H (MTBE solvate)
